We go through 3 compounds from patent publication US6432959B1, “Inhibitors of farnesyl-protein transferase” (Schering Corporation, priority 1998, dated 2002).

Data set [1] has as its target T1, partially purified rat brain farnesyl protein transferase (FPT) (Rattus norvegicus, UniProt Q02293+Q04631).
T1 construct: partially purified rat brain farnesyl protein transferase (FPT); from tissue; host or cells: rat brain
In words: FPT IC50, in vitro enzyme assay (inhibition of Ras-CVLS farnesylation). It is filed as biochemical. The conditions noted are these: inhibition of Ras-CVLS farnesylation by partially purified rat brain FPT; value is a range stated for a group of compounds. The method, then:
1. In vitro enzyme assays: FPT IC50 (inhibition of farnesyl protein transferase, in vitro enzyme assay) are determined by the methods disclosed in WO/10515 or WO95/10516.

Values joined by “and” are separate entries in the source; they are usually repeats but may differ in a detail not shown here. Identical values can stand only once.

For orientation: melting point means the temperature of the solid-liquid transition. One may read the IC50 as the concentration at which inhibition is half-maximal. Low readings indicate greater potency in that assay, high ones weaker potency in that assay. Turning to `N#Cc1ccc(Cn2cncc2CCNC(=O)[C@H]2CN(Cc3ccccc3)CCN2C(=O)c2ccccc2)cc1` [Example 28G, 1-benzoyl-N-[2-[1-[(4-cyanophenyl)methyl]-1H-imidazol-5-yl]ethyl]-4-phenylmethyl-2(R)-piperazinedicarboxamide], the melting point fell in the range of 115.3 to 170.3 °C. The compound also gave an IC50 in data set [1] of 0.18 to 21 nM.
Consider `CC(C)(C)NC(=O)N1CCN(Cc2ccccc2)C[C@@H]1C(=O)NCCc1cncn1Cc1ccc(C#N)cc1` [Example 28O, N2-[2-[1-[(4-cyanophenyl)methyl]-1H-imidazol-5-yl]ethyl]-N1-(1,1-dimethylethyl)-4-(phenylmethyl)-1,2(R)-piperazinedicarboxamide], for which the melting point amounted to 97.8 °C. For the same compound, the IC50 in data set [1] was 0.18 to 21 nM and 0.18 to 1.5 nM.
`O=C(NCCc1cncn1Cc1ccc(Cl)cc1)[C@H]1CN(Cc2ccccc2)CCN1C(=O)NC1CCCCC1` [Example 28C, N4-phenylmethyl-N2-[2-[1-[(4-chlorophenyl)methyl]-1H-imidazol-5-yl]ethyl]-N1-cyclohexyl-1,2(R)-piperazinedicarboxamide] showed a melting point of 116.2 °C. The compound further gave a concentration for half-maximal inhibition (IC50) in data set [1] of 0.18 to 21 nM.
